Test results as given in paper PMC6802645, “6′-Sialylgalactose inhibits vascular endothelial growth factor receptor 2-mediated angiogenesis” (Experimental & Molecular Medicine, 2019).
pKd: −log10 of the molar value.

Target: T1, VEGFR-2 (vascular endothelial growth factor receptor 2) (Homo sapiens, UniProt P35968)
T1 construct: gene KDR; second and third IgG-like domains of VEGFR-2 (VEGFR-2 IG3)
Experiment: SPR (Biacore T100, VEGFR-2 IG3 immobilized by amine coupling on CM5)
Format: binding

T1 sequence (P35968 141-320 limits assumed): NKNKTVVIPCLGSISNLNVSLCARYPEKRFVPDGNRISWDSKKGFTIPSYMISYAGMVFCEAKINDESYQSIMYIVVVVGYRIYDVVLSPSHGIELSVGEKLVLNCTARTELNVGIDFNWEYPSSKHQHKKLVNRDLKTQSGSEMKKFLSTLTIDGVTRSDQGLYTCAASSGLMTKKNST

SMILES | pKd
CC(=O)N[C@H]1[C@H]([C@H](O)[C@H](O)CO)OC(OC[C@H]2O[C@@H](O[C@H]3[C@H](O)[C@@H](O)C(O)O[C@@H]3CO)[C@H](O)[C@@H](O)[C@H]2O)(C(=O)O)C[C@@H]1O (some centres unmarked) [6SL, 6′-sialyllactose] | 8.52
CC(=O)N[C@H]1[C@H]([C@H](O)[C@H](O)CO)OC(OC[C@H]2OC(O)[C@H](O)[C@@H](O)[C@H]2O)(C(=O)O)C[C@@H]1O (some centres unmarked) [6SG, 6′-sialylgalactose] | 8.63
